Measured values published in the NIST ThermoML archive (doi:10.1016/j.tca.2004.12.015).
Where “and” joins values, the source holds several entries; their conditions need not be identical. Equal entries are not always repeated.

Test: molar heat capacity at constant pressure
Conditions: 101.33 kPa, Vacuum adiabatic calorimetry

N#CCCNc1ccccc1 [3-anilinopropanenitrile]
Conditions | molar heat capacity at constant pressure
83 K, Crystal 2 | 52.6 J/K/mol
83.11 K, Crystal 2 | 52.8 J/K/mol
85.94 K, Crystal 2 | 53.3 J/K/mol
88 K, Crystal 2 | 53.8 J/K/mol
88.94 K, Crystal 2 | 54.1 J/K/mol
91.87 K, Crystal 2 | 55.3 J/K/mol
93 K, Crystal 2 | 55 J/K/mol
94.73 K, Crystal 2 | 54.7 J/K/mol
97.54 K, Crystal 2 | 55.3 J/K/mol
98 K, Crystal 2 | 56 J/K/mol
100.3 K, Crystal 2 | 55.4 J/K/mol
103 K, Crystal 2 | 57 J/K/mol
103.01 K, Crystal 2 | 56 J/K/mol
105.67 K, Crystal 2 | 57.9 J/K/mol
108 K, Crystal 2 | 57.6 J/K/mol
108.29 K, Crystal 2 | 58.1 J/K/mol
110.86 K, Crystal 2 | 58.6 J/K/mol
113 K, Crystal 2 | 58.4 J/K/mol
113.39 K, Crystal 2 | 59.7 J/K/mol
115.91 K, Crystal 2 | 59.1 J/K/mol
118 K, Crystal 2 | 59.1 J/K/mol
118.39 K, Crystal 2 | 59.9 J/K/mol
120.86 K, Crystal 2 | 59.7 J/K/mol
123 K, Crystal 2 | 60.1 J/K/mol
123.29 K, Crystal 2 | 60.2 J/K/mol
125.69 K, Crystal 2 | 61.3 J/K/mol
128 K, Crystal 2 | 61.3 J/K/mol
128.08 K, Crystal 2 | 61.2 J/K/mol
130.44 K, Crystal 2 | 61.4 J/K/mol
132.78 K, Crystal 2 | 62 J/K/mol
133 K, Crystal 2 | 62.6 J/K/mol
135.1 K, Crystal 2 | 62.8 J/K/mol
137.39 K, Crystal 2 | 63.4 J/K/mol
138 K, Crystal 2 | 64.3 J/K/mol
139.66 K, Crystal 2 | 64.3 J/K/mol
141.91 K, Crystal 2 | 65 J/K/mol
143 K, Crystal 2 | 66 J/K/mol
144.13 K, Crystal 2 | 67.1 J/K/mol
146.35 K, Crystal 2 | 66.9 J/K/mol
148 K, Crystal 2 | 67.8 J/K/mol
148.54 K, Crystal 2 | 67.5 J/K/mol
150.73 K, Crystal 2 | 68.2 J/K/mol
152.89 K, Crystal 2 | 68.6 J/K/mol
153 K, Crystal 2 | 69.6 J/K/mol
155.03 K, Crystal 2 | 69.6 J/K/mol
157.16 K, Crystal 2 | 70.4 J/K/mol
158 K, Crystal 2 | 71.3 J/K/mol
159.28 K, Crystal 2 | 71.7 J/K/mol
161.38 K, Crystal 2 | 72.6 J/K/mol
163 K, Crystal 2 | 73.1 J/K/mol
163.47 K, Crystal 2 | 73 J/K/mol
165.54 K, Crystal 2 | 73.7 J/K/mol
167.59 K, Crystal 2 | 74.3 J/K/mol
168 K, Crystal 2 | 74.7 J/K/mol
169.63 K, Crystal 2 | 75.2 J/K/mol
171.66 K, Crystal 2 | 76 J/K/mol
173 K, Crystal 2 | 76.2 J/K/mol
173.68 K, Crystal 2 | 77 J/K/mol
175.7 K, Crystal 2 | 77.8 J/K/mol
177.67 K, Crystal 2 | 78.2 J/K/mol
178 K, Crystal 2 | 77.8 J/K/mol
179.65 K, Crystal 2 | 78.9 J/K/mol
181.61 K, Crystal 2 | 79.9 J/K/mol
183 K, Crystal 2 | 79.5 J/K/mol
183.57 K, Crystal 2 | 81.2 J/K/mol
185.51 K, Crystal 2 | 81.6 J/K/mol
187.45 K, Crystal 2 | 82.1 J/K/mol
188 K, Crystal 2 | 81.5 J/K/mol
189.37 K, Crystal 2 | 83 J/K/mol
191.29 K, Crystal 2 | 84 J/K/mol
193 K, Crystal 2 | 84 J/K/mol
193.19 K, Crystal 2 | 84 J/K/mol
195.09 K, Crystal 2 | 84.8 J/K/mol
196.97 K, Crystal 2 | 84.8 J/K/mol
198 K, Crystal 2 | 86.5 J/K/mol
198.84 K, Crystal 2 | 86.5 J/K/mol
200.68 K, Crystal 2 | 88.1 J/K/mol
202.52 K, Crystal 2 | 88.1 J/K/mol
203 K, Crystal 2 | 89.8 J/K/mol
204.36 K, Crystal 2 | 90.6 J/K/mol
206.19 K, Crystal 2 | 92.3 J/K/mol
208 K, Crystal 2 | 94 J/K/mol
208.02 K, Crystal 2 | 93.1 J/K/mol
209.84 K, Crystal 2 | 94.8 J/K/mol
211.66 K, Crystal 2 | 96.4 J/K/mol
213 K, Crystal 2 | 98.9 J/K/mol
213.46 K, Crystal 2 | 97.3 J/K/mol
215.26 K, Crystal 2 | 98.9 J/K/mol
217.05 K, Crystal 2 | 101 J/K/mol
218 K, Crystal 2 | 105 J/K/mol
218.84 K, Crystal 2 | 102 J/K/mol
220.61 K, Crystal 2 | 105 J/K/mol
222.38 K, Crystal 2 | 107 J/K/mol
223 K, Crystal 2 | 111 J/K/mol
224.14 K, Crystal 2 | 111 J/K/mol
225.88 K, Crystal 2 | 112 J/K/mol
227.6 K, Crystal 2 | 116 J/K/mol
228 K, Crystal 2 | 118 J/K/mol
229.29 K, Crystal 2 | 121 J/K/mol
230.95 K, Crystal 2 | 124 J/K/mol
232.59 K, Crystal 2 | 126 J/K/mol
233 K, Crystal 2 | 125 J/K/mol
234.22 K, Crystal 2 | 129 J/K/mol
235.85 K, Crystal 2 | 131 J/K/mol
237.47 K, Crystal 2 | 132 J/K/mol
238 K, Crystal 2 | 132 J/K/mol
239.08 K, Crystal 2 | 136 J/K/mol
240.67 K, Crystal 2 | 140 J/K/mol
242.24 K, Crystal 2 | 141 J/K/mol
243 K, Crystal 2 | 139 J/K/mol
243.78 K, Crystal 2 | 144 J/K/mol
245.31 K, Crystal 2 | 146 J/K/mol
246.85 K, Crystal 2 | 146 J/K/mol
248 K, Crystal 2 | 146 J/K/mol
248.39 K, Crystal 2 | 147 J/K/mol
249.91 K, Crystal 2 | 148 J/K/mol
251.45 K, Crystal 2 | 149 J/K/mol
252.99 K, Crystal 2 | 150 J/K/mol
253 K, Crystal 2 | 151 J/K/mol
254.53 K, Crystal 2 | 150 J/K/mol
256.06 K, Crystal 2 | 150 J/K/mol
257.59 K, Crystal 2 | 151 J/K/mol
258 K, Crystal 2 | 156 J/K/mol
259.11 K, Crystal 2 | 153 J/K/mol
260.62 K, Crystal 2 | 155 J/K/mol
262.12 K, Crystal 2 | 156 J/K/mol
263 K, Crystal 2 | 160 J/K/mol
263.62 K, Crystal 2 | 158 J/K/mol
265.1 K, Crystal 2 | 158 J/K/mol
266.58 K, Crystal 2 | 160 J/K/mol
268 K, Crystal 2 | 161 J/K/mol
268.05 K, Crystal 2 | 160 J/K/mol
269.52 K, Crystal 2 | 161 J/K/mol
270.98 K, Crystal 2 | 161 J/K/mol
272.44 K, Crystal 2 | 161 J/K/mol
273 K, Crystal 2 | 162 J/K/mol
273.9 K, Crystal 2 | 162 J/K/mol
275.36 K, Crystal 2 | 163 J/K/mol
276.81 K, Crystal 2 | 163 J/K/mol
278 K, Crystal 2 | 162 J/K/mol
278.26 K, Crystal 2 | 164 J/K/mol
279.7 K, Crystal 2 | 164 J/K/mol
281.13 K, Crystal 2 | 165 J/K/mol
282.56 K, Crystal 2 | 165 J/K/mol
283 K, Crystal 2 | 162 J/K/mol
283.98 K, Crystal 2 | 165 J/K/mol
285.41 K, Crystal 2 | 165 J/K/mol
286.82 K, Crystal 2 | 165 J/K/mol
288 K, Crystal 2 | 164 J/K/mol
288.23 K, Crystal 2 | 165 J/K/mol
289.63 K, Crystal 2 | 166 J/K/mol
291.02 K, Crystal 2 | 166 J/K/mol
292.39 K, Crystal 2 | 167 J/K/mol
293 K, Crystal 2 | 168 J/K/mol
293.74 K, Crystal 2 | 169 J/K/mol
295.08 K, Crystal 2 | 170 J/K/mol
296.42 K, Crystal 2 | 171 J/K/mol
297.76 K, Crystal 2 | 174 J/K/mol
298.15 K, Crystal 2 | 179 J/K/mol
299.09 K, Crystal 2 | 177 J/K/mol
300.41 K, Crystal 2 | 180 J/K/mol
301.72 K, Crystal 2 | 185 J/K/mol
303 K, Crystal 2 | 192 J/K/mol and 196 J/K/mol
304.27 K, Crystal 2 | 201 J/K/mol
305 K, Crystal 2 | 206 J/K/mol
305.5 K, Crystal 2 | 213 J/K/mol
306.69 K, Crystal 2 | 231 J/K/mol
307.82 K, Crystal 2 | 260 J/K/mol
308.85 K, Crystal 2 | 301 J/K/mol
309.78 K, Crystal 2 | 355 J/K/mol
310.63 K, Crystal 2 | 390 J/K/mol
311.5 K, Crystal 1 | 329 J/K/mol
312.51 K, Crystal 1 | 280 J/K/mol
313.55 K, Crystal 1 | 303 J/K/mol
314.54 K, Crystal 1 | 330 J/K/mol
315.48 K, Crystal 1 | 365 J/K/mol
316.35 K, Crystal 1 | 410 J/K/mol
317.16 K, Crystal 1 | 466 J/K/mol
317.89 K, Crystal 1 | 538 J/K/mol
318.55 K, Crystal 1 | 629 J/K/mol
319.14 K, Crystal 1 | 738 J/K/mol
319.66 K, Crystal 1 | 865 J/K/mol
320.12 K, Crystal 1 | 1014 J/K/mol
320.52 K, Crystal 1 | 1189 J/K/mol
320.86 K, Crystal 1 | 1380 J/K/mol
321.16 K, Crystal 1 | 1596 J/K/mol
321.42 K, Crystal 1 | 1846 J/K/mol
321.65 K, Crystal 1 | 2037 J/K/mol
321.85 K, Crystal 1 | 2361 J/K/mol
322.03 K, Crystal 1 | 2644 J/K/mol
322.19 K, Crystal 1 | 2885 J/K/mol
322.33 K, Crystal 1 | 3118 J/K/mol
322.45 K, Crystal 1 | 3359 J/K/mol
322.56 K, Crystal 1 | 3742 J/K/mol
322.66 K, Crystal 1 | 4116 J/K/mol
322.75 K, Crystal 1 | 4448 J/K/mol
322.83 K, Crystal 1 | 4648 J/K/mol
322.9 K, Crystal 1 | 5022 J/K/mol
322.97 K, Crystal 1 | 5280 J/K/mol
323.03 K, Crystal 1 | 5513 J/K/mol
323.09 K, Crystal 1 | 5621 J/K/mol
323.15 K, Crystal 1 | 6011 J/K/mol
323.2 K, Crystal 1 | 6386 J/K/mol
323.24 K, Crystal 1 | 6585 J/K/mol
323.29 K, Crystal 1 | 6627 J/K/mol
323.33 K, Crystal 1 | 6677 J/K/mol
323.37 K, Liquid | 6568 J/K/mol
323.42 K, Liquid | 6236 J/K/mol
323.46 K, Liquid | 5862 J/K/mol
323.5 K, Liquid | 5604 J/K/mol
323.55 K, Liquid | 5446 J/K/mol
323.59 K, Liquid | 5080 J/K/mol
323.64 K, Liquid | 4673 J/K/mol
323.69 K, Liquid | 4199 J/K/mol
323.73 K, Liquid | 3816 J/K/mol
323.78 K, Liquid | 3517 J/K/mol
323.83 K, Liquid | 2536 J/K/mol
324 K, Liquid | 1014 J/K/mol
324.78 K, Liquid | 242 J/K/mol
325 K, Liquid | 244 J/K/mol
325.93 K, Liquid | 245 J/K/mol
327.07 K, Liquid | 245 J/K/mol
328.2 K, Liquid | 246 J/K/mol
329.34 K, Liquid | 246 J/K/mol
330 K, Liquid | 247 J/K/mol
330.46 K, Liquid | 247 J/K/mol
331.59 K, Liquid | 247 J/K/mol
332.72 K, Liquid | 247 J/K/mol
333.84 K, Liquid | 247 J/K/mol
334.96 K, Liquid | 248 J/K/mol
335 K, Liquid | 249 J/K/mol
336.08 K, Liquid | 250 J/K/mol
337.19 K, Liquid | 251 J/K/mol
338.3 K, Liquid | 253 J/K/mol
339.4 K, Liquid | 254 J/K/mol
340 K, Liquid | 254 J/K/mol
340.5 K, Liquid | 255 J/K/mol
342.69 K, Liquid | 259 J/K/mol
343.77 K, Liquid | 262 J/K/mol
344.84 K, Liquid | 265 J/K/mol
345 K, Liquid | 266 J/K/mol
345.9 K, Liquid | 269 J/K/mol
346.95 K, Liquid | 273 J/K/mol
348.01 K, Liquid | 278 J/K/mol
349.04 K, Liquid | 284 J/K/mol
350 K, Liquid | 288 J/K/mol
351.08 K, Liquid | 294 J/K/mol
352.08 K, Liquid | 300 J/K/mol
353 K, Liquid | 308 J/K/mol
353.07 K, Liquid | 309 J/K/mol
